Laboratory results taken from ChEMBL document CHEMBL4371076 (J Med Chem, 2019).
Activity calls are given as the source filed them.

How the values were obtained:
[1] = Fraction unbound in mouse trigeminal ganglia neuron tissue; format: ADME, tissue-based, Trigeminal ganglion
[2] = target: T1, Sodium channel protein type 9 subunit alpha (Homo sapiens, UniProt Q15858); assay: Inhibition of recombinant human Nav1.7 expressed in HEK293 cells assessed as dissociation time constant at -120 mV holding potential by patch clamp electrophysiology method; format: cell-based
Target sequence in this assay (Q15858 whole entry, looked up): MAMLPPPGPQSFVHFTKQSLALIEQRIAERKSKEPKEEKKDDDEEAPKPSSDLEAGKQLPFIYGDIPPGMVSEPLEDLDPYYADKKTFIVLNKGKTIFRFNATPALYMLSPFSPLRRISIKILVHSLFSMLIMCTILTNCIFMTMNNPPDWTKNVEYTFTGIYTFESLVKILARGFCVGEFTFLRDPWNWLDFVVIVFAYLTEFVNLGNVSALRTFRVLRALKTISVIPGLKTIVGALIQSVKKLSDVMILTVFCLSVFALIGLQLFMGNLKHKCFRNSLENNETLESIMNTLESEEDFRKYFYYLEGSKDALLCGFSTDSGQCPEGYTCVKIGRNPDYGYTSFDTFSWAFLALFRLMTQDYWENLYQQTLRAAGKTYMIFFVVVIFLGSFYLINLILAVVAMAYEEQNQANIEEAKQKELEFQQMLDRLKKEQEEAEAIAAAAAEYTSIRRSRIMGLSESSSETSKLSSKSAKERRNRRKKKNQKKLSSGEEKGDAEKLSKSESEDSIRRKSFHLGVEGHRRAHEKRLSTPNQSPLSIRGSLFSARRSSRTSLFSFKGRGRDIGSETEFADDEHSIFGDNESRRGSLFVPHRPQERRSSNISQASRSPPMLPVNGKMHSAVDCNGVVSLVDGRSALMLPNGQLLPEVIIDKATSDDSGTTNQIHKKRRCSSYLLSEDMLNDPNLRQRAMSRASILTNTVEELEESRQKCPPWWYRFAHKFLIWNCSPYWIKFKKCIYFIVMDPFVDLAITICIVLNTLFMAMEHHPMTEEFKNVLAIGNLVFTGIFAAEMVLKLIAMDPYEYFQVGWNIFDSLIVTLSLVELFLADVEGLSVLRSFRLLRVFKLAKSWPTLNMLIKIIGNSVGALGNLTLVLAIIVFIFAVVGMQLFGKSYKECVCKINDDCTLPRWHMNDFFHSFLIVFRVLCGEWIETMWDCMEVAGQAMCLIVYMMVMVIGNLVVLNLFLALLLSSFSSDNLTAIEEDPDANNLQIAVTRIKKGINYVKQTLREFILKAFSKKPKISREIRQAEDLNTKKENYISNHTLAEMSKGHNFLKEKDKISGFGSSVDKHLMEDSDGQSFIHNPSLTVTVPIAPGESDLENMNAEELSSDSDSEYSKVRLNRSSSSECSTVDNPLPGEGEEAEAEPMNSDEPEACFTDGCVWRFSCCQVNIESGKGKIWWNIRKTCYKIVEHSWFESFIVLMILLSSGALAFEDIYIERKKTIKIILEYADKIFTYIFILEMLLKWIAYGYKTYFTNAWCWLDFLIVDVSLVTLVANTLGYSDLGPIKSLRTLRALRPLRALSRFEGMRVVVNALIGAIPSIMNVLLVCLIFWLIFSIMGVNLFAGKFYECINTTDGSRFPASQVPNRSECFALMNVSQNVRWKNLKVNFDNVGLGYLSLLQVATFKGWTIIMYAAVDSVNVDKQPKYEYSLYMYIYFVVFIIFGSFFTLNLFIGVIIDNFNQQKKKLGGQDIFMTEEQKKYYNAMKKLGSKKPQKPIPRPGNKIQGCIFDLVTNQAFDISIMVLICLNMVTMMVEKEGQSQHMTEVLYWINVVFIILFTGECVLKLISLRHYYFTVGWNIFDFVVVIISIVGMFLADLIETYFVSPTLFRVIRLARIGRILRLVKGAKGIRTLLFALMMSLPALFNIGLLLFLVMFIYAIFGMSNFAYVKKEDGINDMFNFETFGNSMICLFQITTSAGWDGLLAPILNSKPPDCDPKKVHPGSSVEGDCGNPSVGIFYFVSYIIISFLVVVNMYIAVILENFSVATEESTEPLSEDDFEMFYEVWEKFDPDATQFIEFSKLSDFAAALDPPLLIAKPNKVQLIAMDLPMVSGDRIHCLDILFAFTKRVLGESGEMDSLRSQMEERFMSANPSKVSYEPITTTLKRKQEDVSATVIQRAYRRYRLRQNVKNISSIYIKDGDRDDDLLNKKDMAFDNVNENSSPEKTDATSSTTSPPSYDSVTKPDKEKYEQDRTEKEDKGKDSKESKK

[3] = target: T2, Sodium channel protein type 9 subunit alpha (Mus musculus, UniProt Q62205); assay: Inhibition of Nav1.7 in mouse DRG neurons at -70 mV holding potential by patch clamp electrophysiology method
[4] = target: Cytochrome P450 2C9 (Homo sapiens, UniProt P11712); assay: Inhibition of CYP2C9 in human liver microsomes; format: ADME
[5] = Metabolic stability in human liver microsomes assessed as parent compound remaining at 0.5 uM after 10 mins; format: ADME, Microsome; details: read-out: Stability
[6] = Fraction unbound in mouse plasma; format: ADME, cell-free
[7] = target: T1, Sodium channel protein type 9 subunit alpha; assay: Inhibition of human Nav1.7 expressed in HEK293 cells after 600 secs at -60 mV holding potential by ion works barracuda population patch clamp method; format: cell-based
Target sequence in this assay (Q15858 whole entry): as the sequence (Q15858 whole entry, looked up) above

[8] = system: Mus musculus; assay: Reduction in mechanoreceptor-mediated afferent transmission in mouse assessed as effect on sural nerve mechanosensitivity by measuring decrease in mechanically elicited afferent firing at 30 mg/kg, ip measured at 90 to 120 mins post dose at 98 to 980 mN threshold pressure; format: functional, organism-based
[9] = target: T1, Sodium channel protein type 9 subunit alpha; assay: Inhibition of recombinant human Nav1.7 expressed in HEK293 cells assessed as association time constant at -70 mV holding potential by patch clamp electrophysiology method; format: cell-based
Target sequence in this assay (Q15858 whole entry, looked up): as above

[10] = Unbound plasma concentration in CD1 mouse model of CFA-induced thermal hyperalgesia at 3 to 30 mg/kg, ip; format: ADME, organism-based; details: in vivo
[11] = target: Cytochrome P450 2D6 (Homo sapiens, UniProt P10635); assay: Inhibition of CYP2D6 in human liver microsomes; format: ADME
[12] = system: Mus musculus; assay: Reduction in mechanoreceptor-mediated afferent transmission in mouse assessed as effect on sural nerve mechanosensitivity at 30 mg/kg, ip measured at 5 to 120 mins post dose at 1.6 mN threshold pressure; format: functional, organism-based
[13] = Fraction unbound in human plasma; format: ADME, cell-free
[14] = Permeability of the compound at pH 5.5 by PAMPA; format: ADME; details: read-out: permeability
[15] = target: T3, Cytochrome P450 2C8 (Homo sapiens, UniProt P10632); assay: Inhibition of CYP2C8 in human liver microsomes; format: ADME
T3 sequence (P10632 whole entry): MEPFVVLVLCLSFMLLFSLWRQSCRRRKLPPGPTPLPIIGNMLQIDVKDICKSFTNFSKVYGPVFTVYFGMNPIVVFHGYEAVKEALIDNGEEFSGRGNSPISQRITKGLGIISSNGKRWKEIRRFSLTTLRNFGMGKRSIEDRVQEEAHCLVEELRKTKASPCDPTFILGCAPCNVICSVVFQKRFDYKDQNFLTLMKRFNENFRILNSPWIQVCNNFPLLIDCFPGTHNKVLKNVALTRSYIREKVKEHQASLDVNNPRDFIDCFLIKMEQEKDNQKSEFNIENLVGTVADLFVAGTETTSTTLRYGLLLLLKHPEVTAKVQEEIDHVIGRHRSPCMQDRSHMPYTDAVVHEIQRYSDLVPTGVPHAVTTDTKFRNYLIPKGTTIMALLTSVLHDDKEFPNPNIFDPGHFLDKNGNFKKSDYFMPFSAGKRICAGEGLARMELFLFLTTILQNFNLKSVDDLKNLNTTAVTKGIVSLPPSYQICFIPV

[16] = target: T3, Cytochrome P450 2C8; assay: Time-dependant inhibition of CYP2C8 in human liver microsomes; format: ADME
[17] = target: Cytochrome P450 2C19 (Homo sapiens, UniProt P33261); assay: Inhibition of CYP2C19 in human liver microsomes; format: ADME
[18] = Fraction unbound in mouse DRG neurons; format: ADME, cell-based, DRG neuron
[19] = Permeability from apical to basolateral side in human Caco2 cells; format: ADME, cell-based; details: Caco-2, read-out: permeability
[20] = system: Mus musculus; assay: Analgesic activity in CD1 mouse model of CFA-induced thermal hyperalgesia assessed as reduction in thermal response latency at 30 mg/kg, ip administered 72 hrs post CFA challenge and measured at 180 mins post dose by Hargreave's test; format: functional, organism-based
[21] = target: T4, Nuclear receptor subfamily 1 group I member 2 (Homo sapiens, UniProt O75469); assay: Inhibition of PXR (unknown origin); format: ADME
T4 sequence (O75469 whole entry): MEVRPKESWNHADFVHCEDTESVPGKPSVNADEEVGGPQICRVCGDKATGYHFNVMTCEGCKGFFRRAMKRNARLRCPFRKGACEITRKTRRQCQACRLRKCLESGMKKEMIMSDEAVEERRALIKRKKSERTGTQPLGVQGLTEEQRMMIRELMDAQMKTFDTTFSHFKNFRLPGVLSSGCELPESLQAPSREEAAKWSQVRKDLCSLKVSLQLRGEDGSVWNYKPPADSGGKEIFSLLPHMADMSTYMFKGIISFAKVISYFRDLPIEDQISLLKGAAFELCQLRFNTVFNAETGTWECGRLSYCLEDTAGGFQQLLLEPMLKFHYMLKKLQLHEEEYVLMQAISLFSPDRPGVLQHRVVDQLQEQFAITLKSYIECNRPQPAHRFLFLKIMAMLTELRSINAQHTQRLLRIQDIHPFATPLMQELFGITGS

[22] = system: Mus musculus; assay: Analgesic activity in CD1 mouse model of CFA-induced thermal hyperalgesia assessed as reduction in thermal response latency at 30 mg/kg, ip administered 72 hrs post CFA challenge and measured at 60 mins post dose by Hargreave's test; format: functional, organism-based
[23] = target: Cytochrome P450 3A4 (Homo sapiens, UniProt P08684); assay: Time-dependant inhibition of CYP3A4 in human liver microsomes; format: ADME
[24] = Ratio of unbound plasma concentration in CD1 mouse model of CFA-induced thermal hyperalgesia at 3 to 30 mg/kg, ip to IC50 for recombinant mouse Nav1.7 expressed in HEK293 cells at -70 mV holding potential by patch clamp electrophysiology method; format: ADME, organism-based; details: in vivo
[25] = Plasma concentration in mouse model of mechanoreceptor-mediated afferent transmission at 30 mg/kg, ip after 2 hrs; format: ADME, organism-based
[26] = Efflux ratio of permeability in human Caco2 cells; format: ADME, cell-based; details: Caco-2
[27] = target: T2, Sodium channel protein type 9 subunit alpha; assay: Inhibition of recombinant mouse Nav1.7 expressed in HEK293 cells at -70 mV holding potential by patch clamp electrophysiology method; format: cell-based
[28] = Metabolic stability in mouse liver microsomes assessed as parent compound remaining at 0.5 uM after 10 mins; format: ADME, Microsome; details: read-out: Stability
[29] = Ratio of fraction unbound in mouse DRG neurons to IC50 for mouse DRG Nav1.7 at -70 mV holding potential by patch clamp electrophysiology method

T2 sequence (Q62205 whole entry): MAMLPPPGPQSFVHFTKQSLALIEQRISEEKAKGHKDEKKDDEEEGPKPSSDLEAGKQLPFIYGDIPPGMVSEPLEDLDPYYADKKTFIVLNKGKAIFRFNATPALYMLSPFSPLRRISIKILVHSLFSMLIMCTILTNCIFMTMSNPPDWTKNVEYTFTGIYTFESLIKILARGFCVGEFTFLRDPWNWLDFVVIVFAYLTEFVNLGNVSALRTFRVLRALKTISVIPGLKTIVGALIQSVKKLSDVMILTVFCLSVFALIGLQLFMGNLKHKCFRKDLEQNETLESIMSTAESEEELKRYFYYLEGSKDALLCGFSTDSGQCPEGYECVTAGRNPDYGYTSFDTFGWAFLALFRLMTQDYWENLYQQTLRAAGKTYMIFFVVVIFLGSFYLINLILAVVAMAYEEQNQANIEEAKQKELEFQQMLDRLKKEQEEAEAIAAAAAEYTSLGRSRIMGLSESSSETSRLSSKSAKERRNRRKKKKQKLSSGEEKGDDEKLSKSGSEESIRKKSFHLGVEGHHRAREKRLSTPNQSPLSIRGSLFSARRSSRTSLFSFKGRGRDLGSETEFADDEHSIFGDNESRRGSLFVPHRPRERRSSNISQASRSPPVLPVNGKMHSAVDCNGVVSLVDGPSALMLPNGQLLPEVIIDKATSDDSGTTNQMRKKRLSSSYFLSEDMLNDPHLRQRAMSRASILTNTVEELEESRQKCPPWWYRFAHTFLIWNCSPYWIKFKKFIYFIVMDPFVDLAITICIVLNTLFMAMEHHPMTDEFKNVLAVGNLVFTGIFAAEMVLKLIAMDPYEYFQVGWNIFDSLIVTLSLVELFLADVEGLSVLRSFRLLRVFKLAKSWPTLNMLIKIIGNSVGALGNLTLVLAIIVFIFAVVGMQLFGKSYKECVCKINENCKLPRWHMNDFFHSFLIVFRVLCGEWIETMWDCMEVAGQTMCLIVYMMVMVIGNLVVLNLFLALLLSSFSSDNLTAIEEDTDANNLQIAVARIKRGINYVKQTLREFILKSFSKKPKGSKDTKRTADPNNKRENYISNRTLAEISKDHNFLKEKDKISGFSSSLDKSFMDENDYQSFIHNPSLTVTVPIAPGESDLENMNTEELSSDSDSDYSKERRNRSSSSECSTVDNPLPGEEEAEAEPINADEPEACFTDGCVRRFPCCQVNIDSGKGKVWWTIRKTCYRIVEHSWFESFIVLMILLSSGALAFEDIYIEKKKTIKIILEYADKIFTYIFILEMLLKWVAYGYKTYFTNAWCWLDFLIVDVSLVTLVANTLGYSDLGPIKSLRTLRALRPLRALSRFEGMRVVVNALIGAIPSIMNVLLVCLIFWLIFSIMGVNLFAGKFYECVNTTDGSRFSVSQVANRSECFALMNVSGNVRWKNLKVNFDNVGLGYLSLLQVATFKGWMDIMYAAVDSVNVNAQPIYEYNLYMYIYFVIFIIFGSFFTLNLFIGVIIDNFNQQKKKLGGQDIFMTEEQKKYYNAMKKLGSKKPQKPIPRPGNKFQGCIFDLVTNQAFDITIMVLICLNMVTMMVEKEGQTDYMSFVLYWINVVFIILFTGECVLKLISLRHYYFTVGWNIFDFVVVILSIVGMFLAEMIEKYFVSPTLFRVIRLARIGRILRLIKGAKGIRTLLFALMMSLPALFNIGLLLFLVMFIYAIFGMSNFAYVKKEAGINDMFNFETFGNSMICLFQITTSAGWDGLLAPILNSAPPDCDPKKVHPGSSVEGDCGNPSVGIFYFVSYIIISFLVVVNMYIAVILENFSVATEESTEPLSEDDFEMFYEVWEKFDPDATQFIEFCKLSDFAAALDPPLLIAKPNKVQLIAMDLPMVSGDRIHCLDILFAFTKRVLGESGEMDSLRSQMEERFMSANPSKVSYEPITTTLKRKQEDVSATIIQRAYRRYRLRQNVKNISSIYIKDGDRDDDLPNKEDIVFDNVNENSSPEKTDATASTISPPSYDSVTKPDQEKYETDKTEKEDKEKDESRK
Chain of Cytochrome P450 2C9 (P11712 whole entry): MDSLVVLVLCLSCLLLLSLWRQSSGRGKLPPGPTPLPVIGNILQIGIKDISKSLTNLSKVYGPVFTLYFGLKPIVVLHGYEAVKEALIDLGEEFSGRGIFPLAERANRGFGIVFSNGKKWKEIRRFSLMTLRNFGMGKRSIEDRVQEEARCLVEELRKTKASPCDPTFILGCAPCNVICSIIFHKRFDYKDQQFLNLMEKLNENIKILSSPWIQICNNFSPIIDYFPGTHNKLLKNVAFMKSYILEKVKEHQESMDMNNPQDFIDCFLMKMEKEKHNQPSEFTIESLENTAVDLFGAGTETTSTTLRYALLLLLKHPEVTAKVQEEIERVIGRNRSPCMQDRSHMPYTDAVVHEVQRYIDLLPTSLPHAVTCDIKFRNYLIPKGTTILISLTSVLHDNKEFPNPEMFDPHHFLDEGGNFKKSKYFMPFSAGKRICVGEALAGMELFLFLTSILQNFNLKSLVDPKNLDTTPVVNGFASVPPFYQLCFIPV
Chain of Cytochrome P450 2C19 (P33261 whole entry): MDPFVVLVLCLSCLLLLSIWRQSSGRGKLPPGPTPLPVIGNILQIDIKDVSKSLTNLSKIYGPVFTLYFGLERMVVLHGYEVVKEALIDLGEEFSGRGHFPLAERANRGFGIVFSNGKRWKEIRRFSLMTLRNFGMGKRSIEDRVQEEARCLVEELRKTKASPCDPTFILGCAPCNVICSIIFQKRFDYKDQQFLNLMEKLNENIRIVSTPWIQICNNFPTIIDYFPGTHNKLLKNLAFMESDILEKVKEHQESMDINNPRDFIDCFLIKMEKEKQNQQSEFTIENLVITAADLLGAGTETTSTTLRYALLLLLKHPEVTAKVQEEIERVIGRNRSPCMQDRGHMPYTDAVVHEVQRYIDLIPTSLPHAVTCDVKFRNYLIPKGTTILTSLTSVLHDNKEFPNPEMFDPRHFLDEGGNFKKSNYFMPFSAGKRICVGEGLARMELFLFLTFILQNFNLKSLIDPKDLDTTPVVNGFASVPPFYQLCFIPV

fraction unbound [1] | TIME [2] [h] | IC50 [3] [nM] | IC50 [4] [nM] | remaining at 10 min, 0.5 µM [5] [%] | fraction unbound [6] | IC50 [7] [nM] | TIME [9] [h] | Cp(f) [10] [µM] | IC50 [11] [nM] | fraction unbound [13] | Papp [14] [×10⁻⁶ cm/s] | IC50 [15] [nM] | TDI [16] | IC50 [17] [nM] | fraction unbound [18] | Papp A→B [19] [×10⁻⁶ cm/s] | SMILES | Activity [8] | Activity [12] | Activity [20] | further results
0.035 | 0.0125 | 11 | 9900 | 95 | 0.002 | 108 | 0.00267 | 0.126 | > 40000 | < 0.001 | 44.3 | 1000 | Not Active | 28000 | 0.035 | < 1.5 | CC(C)COc1ncc(-c2cn(C)c3cc(C(=O)NS(C)(=O)=O)ccc23)cc1Cl | Active | inactive | inactive | IC50 [21]: > 50000 nM; Activity [22]: Active; TDI [23]: Not Active; Ratio [24]: 4 to 5; concentration at 2 h [25]: 89 µM; efflux ratio [26]: > 5.5; IC50 [27]: 35 nM; remaining at 10 min, 0.5 µM [28]: 100%; Ratio [29]: 8.7
0.069 | 0.0275 | 14 | 27000 | 98 | 0.014 | 89 | 0.00336 | 0.532 | > 40000 | 0.008 | 80.2 | 1000 | Not Active | 4000 | 0.085 | 6.1 | CC(C)COc1ccc(-c2cn(C)c3cc(C(=O)NS(C)(=O)=O)c(F)cc23)cn1 | Active | inactive | inactive | IC50 [21]: > 50000 nM; Activity [22]: inactive; TDI [23]: Not Active; Ratio [24]: 4 to 5; concentration at 2 h [25]: 57 µM; efflux ratio [26]: 3.1; IC50 [27]: 115 nM; remaining at 10 min, 0.5 µM [28]: 99%; Ratio [29]: 5.5
